Data: article PMC11984388, “A brain-accessible peptide modulates stroke inflammatory response and neurotoxicity by targeting BDNF-receptor TrkB-T1 specific interactome” (Theranostics, 2025)

What was measured:
GFAP+/C3+ cells = assay: Immunohistochemistry of reactive astrocytes in ischemic brain; type: in vivo, mice; details: 3 nmol/g 1 h after damage; early after injury (5 h); versus TMyc
Experimental: (§1) The brains of animals injected one hour af ter the initiation of the photothrombotic damage with vehicle (saline), TMyc or TT1Ct (3 nmol/g) were process ed and cryoprote cted as before indicated. The duration of damage before sa cri f i ce was 5 h (male and female) or 24 h (male).
(§2) Coronal froze n se ctions were incubated with blocking solution as des cribe d in flota tion for 1 h at room temperature and then overnight with prima ry antibodies diluted in 4% goat se rum and 0.3% Triton X-100 in PBS at 4°C. After was hing, slides were incubated 1 h with Alexa Fluor 546- conjugated goat anti-rabbit or AlexaFluor 647- conjugated goat anti-mouse se condary antibodies to visua liz e the prima ry antibodies and DAPI (5 μg/ml). Only for Iba1 sta ining, blocking solution was 2.5% BS A, 5% goat se rum, 0.5% Triton X-100 in PBS, and se ctions were incubated with prima ry antibody 24 h at RT follow ed by was hing and Alexa Fluor 546-conjugated goat anti-rabbit and DAPI incubation for 1 h. Sections were then was hed in PBS, mounted on slides , dried for 15 min at 37 °C on a hot plate, or air dried overnight and then cover slipped with DPX or Prolong Diamond. Ce ll Obs erve d images were obtained with Zeiss microscope Observe r.Z1 using a 10x Plan-Apochromatic objective. […]

[1] = Infarct volume after photothrombotic permanent ischemia; type: in vivo, mice; details: 24 h; for Decrease of infarct volume: versus TMyc, 3 nmol/g i.v. 1 h after damage
Experimental: Permanent focal ischemia was induced in cerebral cortex of adult male and female mice by microvascular photothrombosis as described with modifications. Brain injury involves vascular endothelium damage and platelet activation, followed by microvascular thrombotic occlusion of a particular region selected for illumination using a stereotaxic frame. Coordinates were +0.2 AP, +2 ML relative to Bregma and damaged area corresponded to primary motor and somatosensory cortex. For neuroprotection, a single dose (3 nmol/g) of peptides TMyc or TT1Ct (see below) was administered 1 h after damage initiation. Further details of the procedures, including measurement of infarct volume and evaluation of motor coordination and balance, are detailed as Supplementary material.
Antibodies, chemica ls and recombinant proteins, cell-penetrating peptides , prime rs , commercial as says , experimental models, recombinant DNAs and software ar e des cribe d in the Table S1, included as Supplementary material.
Animal procedures were performed follow ing Europea n Union Directive 2010/63/ EU and were approved by the CS I C and Comunidad de Ma drid (Ref PROEX 276.6/20) ethics committees.
Hous ing facilities were approved by Comunidad de Ma drid (#ES 280790000188) and conform to official regulations. Animals had sta ndard health and immune sta tus and were looked af ter by profes sional caretake rs daily. Ma l e and female mice were kept in groups of up to five in sta ndard IVC cage s while 1–2 pregnant rats occupied sta ndard cage s, always containing bedding and nes ting materials. Animals were under controlled lighting conditions (12 h light cycles ), relative humidity and temperature. Irradiated food and water were provided ad libitum.
We trie d to minimiz e animal suffering and reduce the number of sa cri f i ced animals .
Mi c e model of isc he mia by microv ascular photothr ombosis to study in vivo excitotoxicity This model of permanent focal isc hemia mimics embolic or thrombotic occlus ion of sm a ll ar ter ie s, which is freque ntly found in human stroke, and caus es a focal brain damage with histological and MR I corre lations to human patterns. The procedure was as previously des cribe d with some modific ations . Ma l e and female Ba lb/c OlaHsd mice (23–31 g; 10–16 weeks of age; Envigo Rms , Spain S.L.) were allowed to acc limatize to our facilities for at least 1 week af ter delivery, before isc hemic induction. They were kept with the sa m e cage mates, and daily examined to chec k their health sta tus . Mi c e were anes thetized with isoflurane (5% for induction, 2% for maintenance in oxygen; Abbot Labora tories , Ma drid, Spain) and then placed in a ste reotaxic frame (Naris hige Group, Tokyo, Ja pan). Body temperature was maintained at 36–37°C using a se l f-regulating heating blanket (Cibertec, Ma drid, Spain). A midline sc al p incision was made, the skull was expos ed, and both Bregma and Lambda points were identifie d.
A cold- light (Sc hott KL 2500 LCD; Schott Glas s, Ma inz, Germany) with a fibre optic bundle of 1.5 mm in diameter was centred using a micromanipula tor on the right side , at 0.2 mm anterior and 2.0 mm lateral (+0.2 AP, +2 ML ) relative to Bregma. […] Five minutes later, the brain was illumina ted (600 lms, 3,000 K) through the intact […]
skull for 10 min. Br ain injury encompas se s damage to vas cular endothelium, platelet activation, and subs equent microvascula r thrombotic occlus ion of the irradiate d region. The ar eas underneath this ste reotaxic position that result irradiate d ar e the prima ry motor cortex and the prima ry soma tos ens ory cortex (hindlimb and forelimb). Once completed surgery, the incision was sutured, and mice were allowed to recover. […]

CD68+ cells = assay: Immunohistochemistry of macrophages/activated microglia in ischemic brain; type: in vivo; details: male mice, 3 nmol/g, 24 h of insult; versus TMyc
Experimental: as §1, §2

## Ac-YGRKKRRQRRRPPFVLFHKIPLDG-NH2 [TT1Ct]
GFAP+/C3+ cells
  Effect on GFAP+/C3+ cells at the infarct boundary: strong decrease
[1]; female mice
  Decrease of infarct volume: 42%
[1]; male + female mice, 3 nmol/g i.v. 1 h after damage induction, TTC, relative to hemisphere volume, mean ± SEM, n = 19, n = 20
  Infarct volume (%): 10 ± 1%
[1]; male mice
  Decrease of infarct volume: 45%
CD68+ cells
  Effect on CD68+ cells in the infarct and surrounding tissues: greatly decreased
